Test results taken from article PMC10854695, “Using Flavonoid Substitution Status to Predict Anticancer Effects in Human Melanoma Cancers: An In Vitro Study” (Cancers, 2024).

Legend:
C32 melanoma cells [1] = experiment: MTT cell viability assay, C32; conditions: Homo sapiens, read-out: IC50, cytotoxic activity, MTT test;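 further: MTT added for 2 h, cells lysed in DMSO, absorbance read at 570 nm, compound vehicle kept at or below 0.1% DMSO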
Method: (§1) The MTT colorimetric assay was performed as a preliminary evaluation of the cytotoxicity of the selected flavonoids according to the method described and validated by Strawa et al. [21]. Briefly, melanoma cells and fibroblasts were seeded in 96-well microplates at a density of 1 × 10^4 cells per well. Fibroblasts were used as a control cell line in order to assess the selectivity of the compounds. […] Subsequently, the cells were washed with PBS, incubated with MTT solution for 2 h, and lysed with dimethyl sulfoxide (DMSO) supplemented with 1% (v/v) Sorensen’s glycine buffer. The absorbance was measured using a microplate reader (EPOCH 2, BioTek, Winooski, VT, USA) at a wavelength of 570 nm. The compounds were used at a final DMSO concentration of no more than 0.1% (v/v) in each well. The results were generated from at least three independent experiments. […] The IC50 values were calculated with GraphPad Prism 9 software (GraphPad Software, San Diego, CA, USA).

A375 melanoma cells [2] = experiment: MTT cell viability assay, A375; conditions: Homo sapiens;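 further: Read-out is formazan absorbance at 570 nm after 2 h with MTT, with compounds in at most 0.1% v/v DMSO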
Method: as §1

C32 melanoma cells [3] = experiment: Neutral red uptake (NRU) assay, C32; conditions: Homo sapiens
A375 melanoma cells [4] = experiment: Neutral red uptake (NRU) assay, A375; conditions: Homo sapiens, read-out: IC50, cytotoxic activity, NRU assay
Method: (§2) The NRU (neutral red uptake) was conducted as previously described by Szoka and co-workers, with some modifications [22]. Briefly, melanoma cells and fibroblasts were seeded in microplates at the density of 1 × 10^4 cells per well and allowed to adhere for 24 h. […] After treatment, the culture medium was replaced with a neutral red solution (40 µg/mL). An additional 2 h of incubation was performed. The neutral red solution was then removed and the neutral red accumulated in the cells was dissolved in 50% EtOH with 1% of the glacial acetic acid. The absorbance was estimated at 540 nm and IC50 values were calculated using GraphPad Prism software (GraphPad Software, San Diego, CA, USA).

[5] = MTT cell viability assay, normal cells; conditions: human;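 further: fibroblasts served as non-cancer comparison line for selectivity versus melanoma cells, MTT reduction read as absorbance at 570 nm after 2 h dye exposure, compounds in ≤0.1% DMSO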
[6] = Neutral red uptake (NRU) assay, normal cells; conditions: human
Method: as §2

[7] = A-375, 24 h, read-out: IC50, cytotoxic activity, MTT test, A375, 24 h
[8] = A-375, 48 h, read-out: IC50, cytotoxic activity, MTT test, A375, 48 h
[9] = A-375, 72 h, read-out: IC50, cytotoxic activity, MTT test, A375, 72 h
[10] = C32, 24 h, read-out: IC50, cytotoxic activity, NRU assay, C32, 24 h
[11] = C32, 48 h, read-out: IC50, cytotoxic activity, NRU assay, C32, 48 h
[12] = C32, 72 h, read-out: IC50, cytotoxic activity, NRU assay, C32, 72 h
[13] = human skin fibroblasts (CCD25Sk)

Compound | IC50 (C32 melanoma cells [1]; C32, 24 h) [µM] | IC50 (C32 melanoma cells [1]; C32, 48 h) [µM] | IC50 (C32 melanoma cells [1]; C32, 72 h) [µM] | IC50 (A375 melanoma cells [2]; [7]) [µM] | IC50 (A375 melanoma cells [2]; [8]) [µM] | IC50 (A375 melanoma cells [2]; [9]) [µM] | IC50 (C32 melanoma cells [3]; [10]) [µM] | IC50 (C32 melanoma cells [3]; [11]) [µM] | IC50 (C32 melanoma cells [3]; [12]) [µM] | IC50 (A375 melanoma cells [4]; A-375, 24 h) [µM] | IC50 (A375 melanoma cells [4]; A-375, 48 h) [µM] | IC50 (A375 melanoma cells [4]; A-375, 72 h) [µM] | IC50 at 24 h [5, 13] [µM] | IC50 at 48 h [5, 13] [µM] | IC50 at 72 h [5, 13] [µM] | IC50 at 24 h [6, 13] [µM] | IC50 at 48 h [6, 13] [µM] | IC50 at 72 h [6, 13] [µM] | further results
O=c1c(O[C@@H]2O[C@H](CO)[C@@H](O)[C@H](O)[C@H]2O)c(-c2ccc(O)cc2)oc2cc(O)cc(O)c12 [Compound 20, kaempferol 3-O-glucoside] | > 200 | > 200 | > 200 | 94.2 ± 6.9 | 46.9 ± 3.5 | 21.5 ± 2.2 | > 200 | > 200 | > 200 | > 200 | > 200 | > 200 | > 200 | > 200 | > 200 | > 200 | > 200 | > 200 | 
O=c1c(O)c(-c2ccc(O)c(O)c2)oc2cc(O)cc(O)c12 [Compound 24, quercetin] | > 200 | > 200 | 68.1 ± 4.6 | > 200 | > 200 | 74.4 ± 5 | > 200 | 58 ± 3.5 | 47.5 ± 4.3 | 100 to 200 | 84.7 ± 6.5 | 79.2 ± 7.3 | > 200 | > 200 | 36.1 ± 2 | > 200 | 92.6 ± 4.2 | 36.4 ± 0.23 | 
COc1cc(O)c2c(=O)c(O)c(-c3ccc(O)c(O)c3)oc2c1 [Compound 25, 7-methoxyquercetin] | > 200 | 100 to 200 | 37.7 ± 2.5 | 100 to 200 | 42.1 ± 3 | 25.1 ± 2.3 | > 200 | 55.4 ± 4.3 | 28.4 ± 2.5 | > 200 | 63.4 ± 4.8 | 43.7 ± 3.5 | 100 to 200 | 45.3 ± 2.3 | 35.7 ± 2.9 | > 200 | 66.3 ± 5.6 | 38.4 ± 3.4 | 
COc1cc(-c2oc3cc(O)cc(O)c3c(=O)c2O)ccc1O [Compound 26, 3′-methoxyquercetin] | > 200 | 100 to 200 | 49.3 ± 3.6 |  |  |  |  |  |  | > 200 | 100 to 200 | 78.1 ± 6.5 |  |  |  |  |  |  | IC50 (A375 melanoma cells [2]; A-375, 24 h, read-out: IC50, cytotoxic activity, MTT test): 86.3 ± 5.9 µM; IC50 (A375 melanoma cells [2]; A-375, 48 h, read-out: IC50, cytotoxic activity, MTT test): 68.5 ± 3.9 µM; IC50 (A375 melanoma cells [2]; A-375, 72 h, read-out: IC50, cytotoxic activity, MTT test): 50.8 ± 4 µM; IC50 (C32 melanoma cells [3]; C32, 24 h, read-out: IC50, cytotoxic activity, NRU assay): > 200 µM; IC50 (C32 melanoma cells [3]; C32, 48 h, read-out: IC50, cytotoxic activity, NRU assay): 100 to 200 µM; IC50 (C32 melanoma cells [3]; C32, 72 h, read-out: IC50, cytotoxic activity, NRU assay): 65.1 ± 4 µM; IC50 at 24 h [5]: 100 to 200 µM; IC50 at 48 h [5]: 68.5 ± 5.4 µM; IC50 at 72 h [5]: 46.2 ± 3.3 µM; IC50 at 24 h [6]: > 200 µM; IC50 at 48 h [6]: 78.7 ± 5.5 µM; IC50 at 72 h [6]: 69.2 ± 4.6 µM
O=C(O)C1OC(Oc2c(-c3ccc(O)c(O)c3)oc3cc(O)cc(O)c3c2=O)C(O)C(O)C1O (stereo not drawn) [Compound 27, quercetin 3-O-glucuronide] | > 200 | > 200 | > 200 | > 200 | > 200 | > 200 | > 200 | > 200 | 100 to 200 | > 200 | > 200 | > 200 | > 200 | > 200 | > 200 | > 200 | > 200 | > 200 | 
C[C@@H]1O[C@@H](OC[C@H]2O[C@@H](Oc3c(-c4ccc(O)c(O)c4)oc4cc(O)cc(O)c4c3=O)[C@H](O)[C@@H](O)[C@@H]2O)[C@H](O)[C@H](O)[C@H]1O [Compound 28, quercetin 3-O-rutinoside] | > 200 | > 200 | > 200 | > 200 | 57 ± 3.1 | 57.8 ± 4.8 | > 200 | > 200 | > 200 | > 200 | > 200 | > 200 | > 200 | > 200 | > 200 | > 200 | > 200 | > 200 | 
